Results from patent US11259522B2, “Control of resistant pests” (priority 2017, dated 2022).
≈ marks a conversion by molar mass, not a printed value. Where “and” joins values, the source holds several entries; their conditions need not be identical. Identical values can stand only once. Like-named read-outs stand apart in the source and are kept apart here.

How the values were obtained:
[1] = test system: Rhyzopertha dominica strain QRD1440 (resistant to OP protectants and pyrethroids); experiment: Grain protectant bioassay on treated wheat, resistant lesser grain borer; conditions: Example 5, QRD1440, 1 ppm on wheat, replicates A, B, C
[2] = test system: Aedes aegypti Liverpool strain (insecticide susceptible, LVP) L3 larvae; experiment: Mosquito larval dose response assay, LVP strain; conditions: read-out: Lethal Concentration (LC50) LVP Strain
[3] = test system: Aedes aegypti PRS Puerto Rican strain (synthetic pyrethroid resistant) L3 larvae; experiment: Mosquito larval dose response assay, PRS strain; conditions: read-out: Lethal Concentration (LC50) PRS Strain
[4] = test system: M. persicae (green peach aphid) population resistant to carbamates and synthetic pyrethroids; experiment: Leaf dip bioassay, green peach aphid, resistant population; format: in vivo, Myzus persicae; conditions: Resistant population; 0.025-2500.0 mg a.i./L; 48 and 96 hours
Procedure: (§1) Each colony was maintained separately on bok choi plants ([…]) within an exclusion cage in a constant temperature room at 24° C. with a photoperiod of 16:8 LD.
(§2) Laboratory bioassays were used to determine the efficacy of flavesone against M. persicae following the leaf dip method described in Moores et al. (1994, Pesticide Biochemistry and Physiology, 49, 114-120). A pilot study was first conducted which confirmed that the leaf dip method was appropriate to elicit a clear dose response for Flavocide 500EW against M. persicae, and to determine the appropriate rate range and timing of mortality assessments (scored at 24, 48, 72 & 96 hours) (data not shown).
(§3) Bioassays were then conducted to assess the efficacy of flavesone against a susceptible and resistant population of M. persicae, and to calculate LC values. The efficacy of a conventional insecticide, pirimicarb, was tested for comparison. Nine concentrations of flavesone ranging from 1×10^−3 to 10 times the proposed field rate (Table 15), and six concentrations of pirimicarb were serially diluted and tested, along with a water control, against the susceptible and resistant aphid populations. Leaf discs (25 mm diameter) cut from bok choi leaves were submerged for 1 second in the insecticide solutions, or in the water control, and placed adaxial side up on 10 g/L agar in 35 mm petri dishes. Six replicate leaf discs were prepared per treatment. Once leaves were air-dry, eight M. persicae nymphs were transferred to each insecticide-dipped leaf disc using a fine-haired paintbrush.
(§4) After aphid introduction, each petri dish was inverted onto a lid containing a 25 mm diameter filter paper to control humidity. All petri dishes were then placed into an incubator held at 18° C.±2° C. with a photoperiod of 16:8 LD cycle. At 48 & 96 hours, aphids were scored as alive (vibrant and moving freely), dead (not moving over a 5 second period), or incapacitated (inhibited movement).
(§5) Dose-response curves were generated by plotting percentage mortality against log concentration. Mortality data was analysed using a logistic regression model with random effects. Logistic regression is suited for the analysis of binary response data (i.e. dead/alive) with the random effect component of the model controlling for the non-independence of mortality scores within replicates. […] Population differences were tested by comparing the change in model deviance with and without the population factor (different regression intercepts for each population). Differences in regression slopes between populations were tested by comparing the change in model deviance with and without the population×dose interaction term.

[5] = test system: M. persicae (green peach aphid) insecticide-susceptible population; experiment: Leaf dip bioassay, green peach aphid, susceptible population; format: in vivo, Myzus persicae
Procedure: as §1, §2, §3, §4, §5

[6] = Susceptible population, 96 hours exposure

Row | SMILES | F1 Progeny count No. dead/total ([1]; further 6 weeks) | 14 Day adult mortality No. dead (total) [1] | LC50 ([2]; 24 h) [µg/mL] | LC50 ([2]; 48 h) [µg/mL] | LC50 ([2]; 72 h) [µg/mL] | LC50 ([3]; 24 h) [µg/mL] | LC50 ([3]; 48 h) [µg/mL] | LC50 ([3]; 72 h) [µg/mL] | mortality observed [4] | LC50 ([5]; Myzus persicae, foliar, 96 h, read-out: LC50 (mg a.i./L)) [µg/mL] | LC90 (mg a.i./L) [5, 6] [mg a.i./L] | LC99 (mg a.i./L) [5, 6] [mg a.i./L]
1 | CC1(C)[C@H](C(=O)O[C@H](C#N)c2cccc(Oc3ccccc3)c2)[C@@H]1C=C(Br)Br [Deltamethrin, deltamethrin, reference compound] | 0/142 and 0/79 and 2/292 | 1/50 (2×) and 0/50 | 0.0119 (≈ 0.0236 µM) | 0.0049 (≈ 0.0097 µM) | 0.0037 (≈ 0.00732 µM) | 0.0522 (≈ 0.103 µM) | 0.0501 (≈ 0.0992 µM) | 0.0412 (≈ 0.0816 µM) |  |  |  | 
2 | CC1(C)C(C=C(Cl)Cl)C1C(=O)OCc1cccc(Oc2ccccc2)c1 (stereo not drawn) [Permethrin, permethrin] |  |  | 0.0219 (≈ 0.056 µM) | 0.0162 (≈ 0.0414 µM) | 0.0166 (≈ 0.0424 µM) | 0.164 (≈ 0.42 µM) | 0.15 (≈ 0.385 µM) | 0.128 (≈ 0.327 µM) |  |  |  | 
3 | Cc1nc(N(C)C)nc(OC(=O)N(C)C)c1C [Pirimicarb, pirimicarb, reference compound] |  |  |  |  |  |  |  |  | Very low mortality | 18.5 (≈ 77.6 µM) | 78.9 | 384
